# Patent publication US11857544B2, “Composition or method including (t)ew-7197 for treating or preventing corneal endothelial diseases” (THE DOSHISHA, priority 2017, dated 2024)
# Experiments:
# Caspase 3/7 = Caspase 3/7 activity (Caspase-Glo 3/7 Assay) in TGF-β-stimulated iFECD; assay type: cell-based, human; settings: in the order of 0.01, 0.1, 1, and 10 μM
# Protocol: were seeded on a 96-well plate at a ratio of 3×10^3 cells per well, and cultured until reaching confluence at 37° C. (5% CO2). DMEM+10% FBS+1% P/S was used as the medium. After 24 hours, the medium was removed. SB431542 (WAKO, 192-16541) and EW-7197 (Selleck Chemicals, 57530) were added so that the final concentration would each be 0.01, 0.1, 1, or 10 μM, and the medium was cultured for 24 hours. DMEM+2% FBS+1% P/S was used as the medium. After 24 hours, the medium was removed. 10 ng/ml of Transforming Growth Factor-132 Human recombinant (WAKO, 200-19911) and SB431542 were added so that the final concentration would be 0.01, 0.1, 1, and 10 μM, and the medium was cultured for 24 hours. DMEM+2% FBS+1% P/S was used as the medium. After 24 hours, the cell morphology was observed under a phase contrast microscope. After observation, Caspase 3/7 activity was measured using Caspase-Glo 3/7 Assay by the following procedures. The medium was discarded so that the amount would be 50 μl per well, and a Caspase Glo 3/7 Assay Reagent (mixture of Caspase-Glo 3/7 Assay Buffer and Caspase-Glo 3/7 Assay Substrate) (Promega, G8091) solution was added at 50 μl/well so that the ratio thereof to the medium would be 1:1. The process was hereinafter conducted without exposure to light. The mixture was mixed thoroughly using a shaker for 2 minutes at about 120 min^-1, and incubated for 40 minutes at room temperature. After the incubation, 80 μl was transferred to an Assay plate (Corning, 3912, Assay plate 96 well, white polystyrene), and absorbance was measured using a GloMax-Multi Detection System (Promega, E7051). A caspase inhibitor, i.e., 10μ MZ-VD-FMK (WAKO, 262-02061) was used as a positive control.
# iFECD = assay: Cell survival rate (Cell Titer-Glo Luminescent Cell Viability Assay); assay type: cell-based, human; settings: iFECD; all concentrations of 0.01, 0.1, 1, and 10 μM; 48 hours
# Protocol: were seeded on a 96-well plate at a ratio of 3×10^3 cells per well, and cultured until reaching confluence at 37° C. (5% CO2). DMEM+10% FBS+1% P/S was used as the medium. After 24 hours, the medium was removed. SB431542 (WAKO, 192-16541) and EW-7197 (Selleck Chemicals, 57530) were added so that the final concentration would each be 0.01, 0.1, 1, or 10 μM, and the medium was cultured for 48 hours. DMEM+2% FBS+1% P/S was used as the medium. After 24 hours, the cell morphology was observed under a phase contrast microscope. After observation, the cell survival rate was analyzed using Cell Titer-Glo Luminescent Cell Viability Assay by the following procedures. The medium was discarded so that the amount would be 50 μl per well, and Cell Titer-Glo Luminescent Cell Viability Assay solution (Promega, G7572) was added at 50 μl/well so that the ratio to the medium would be 1:1. The process was hereinafter conducted without exposure to light. The mixture was mixed thoroughly using a shaker for 2 minutes at about 120 min^-1, and incubated for 10 minutes. After the incubation, 80 μl was transferred to an Assay plate (Corning, 3912, Assay plate 96 well, white polystyrene), and absorbance was measured using a GloMax-Multi Detection System (Promega, E7051).
# [1] = system: immortalized human corneal endothelial cells from a Fuchs' endothelial corneal dystrophy patient (iFECD); assay: Suppression of TGF-β-induced corneal endothelial cell disorder, observed under a phase contrast microscope; assay type: cell-based; settings: for effect of suppressing corneal endothelial cell disorder: Example 1, iFECD, 24 h pretreatment then 10 ng/ml TGF-β 24 h
# Protocol: The medium was removed from a culture dish culturing immortalized human corneal endothelial cells from a Fuchs' endothelial corneal dystrophy patient (iFECD), and 1×PBS(-) preheated to 37° C. was added and washed. This was repeated twice. 1×PBS(-) was added again and the medium was incubated for 5 minutes at 37° C. (5% CO2). After removing the PBS(-), 0.05% Trypsin-EDTA (Nacalai Tesque, 32778-34) was added and incubated for 5 minutes at 37° C. (5% CO2). The medium was then suspended and centrifuged for 3 minutes at 1500 rpm to retrieve cells. DMEM (Nacalai Tesque, 08456-36)+10% FBS (Biowest, S1820-500)+1% P/S (Nacalai Tesque, 26252-94) was used as the medium. The immortalized human corneal endothelial cells from a Fuchs' endothelial corneal dystrophy patient (iFECD) were seeded on a 12-well plate at a ratio of 8.0×10^4 cells per well and cultured for 24 hours at 37° C. (5% CO2). DMEM+10% FBS+1% P/S was used as the medium. After 24 hours, the medium was exchanged and cultured again for 24 hours. DMEM+2% FBS+1% P/S was used as the medium. After 24 hours, the medium was removed. 10 ng/ml of Transforming Growth Factor-132 Human recombinant (WAKO, 200-19911) was added, and the medium was cultured for 24 hours. DMEM+2% FBS+1% P/S was used as the medium. After 24 hours, the cell morphology and apoptosis were observed under a phase contrast microscope. After […] were seeded on a 12-well plate and cultured for 24 hours, the medium was removed. SB431542 (WAKO, 192-16541) and EW-7197 (Selleck Chemicals, 57530) were added so that the final concentration would each be 0.1, 0.3, 1, 3, or 10 μM, and the medium was cultured for 24 hours. DMEM+2% FBS+1% P/S was used as the medium. After 24 hours, the medium was removed. 10 ng/ml of Transforming Growth Factor-132 Human recombinant (WAKO, 200-19911) as well as SB431542 and EW-7197 were added so that the final concentration would each be 0.1, 0.3, 1, 3, or 10 μM, and the medium was cultured for 24 hours. DMEM+2% FBS+1% P/S was used as the medium. After 24 hours, the cell morphology and apoptosis were observed under a phase contrast microscope. After […] were seeded on a 12-well plate at a ratio of 7.0×10^4 cells and cultured for 24 hours, the medium was removed. EW-7197 (Selleck Chemicals, 57530) was added so that the final concentration would be 0.001, 0.003, 0.01, 0.03, 0.1, 0.3, 1, 3, 10, or 30 μM, and the medium was cultured for 24 hours. DMEM+2% FBS+1% P/S was used as the medium. After 24 hours, the medium was removed. 10 ng/ml of Transforming Growth Factor-132 Human recombinant (WAKO, 200-19911) and EW-7197 were added so that the final concentration would be 0.001, 0.003, 0.01, 0.03, 0.1, 0.3, 1, 3, 10, or 30 μM, and the medium was cultured for 24 hours. DMEM+2% FBS+1% P/S was used as the medium. After 24 hours, the cell morphology and apoptosis were observed under a phase contrast microscope.
smiles,measurement,setting,value
"NC(=O)c1ccc(-c2nc(-c3ccc4c(c3)OCO4)c(-c3ccccn3)[nH]2)cc1 [SB431542, reference compound]",activity of Caspase 3/7,Caspase 3/7,reduced
same,cell survival rate compared to a control group,iFECD,a significant difference was not found
same,effect of suppressing corneal endothelial cell disorder,[1]; compound at 3 μM and 10 μM,suppressed
same,effect of suppressing corneal endothelial cell disorder,[1]; compound at 10 μM,effectively suppressed
same,effect of suppressing corneal endothelial disorders,"[1]; summary statement, at sub-μM (1 μM to 0.1 μM)",not observed
